Assay results taken from patent US20240190878A1, “ANTIVIRAL PRODRUGS OF ETV AND FORMULATIONS THEREOF” (THE SCRIPPS RESEARCH INSTITUTE, priority 2022, published 2024).
Like-named read-outs stand apart in the source and are kept apart here.

Key:
[1] = Single dose rat PK, intramuscular (Example 39); assay type: in vivo, Male SD rats
Method: (§1) Animals. Animals (Male SD rats ˜200-250 g and Male Beagle dog ˜12-15 kg) were obtained from an approved vendor.
(§2) Animals were […] at least 12 hours prior to the administration. All animals had access to Certified Rodent and non-Rodent Diet ad libitum 4 hours post dosing.
(§3) Dose Formulation. The formulations were prepared on the day of dosing. Animals were dosed within four hours after the formulation is prepared. Two 20 μL aliquots of each formulation were removed from each of the formulation solutions, transferred into 1.5 mL of polypropylene microcentrifuge tubes and run dose validation by LC/UV or LC-MS/MS.
(§4) Dose Administration. For SC/IM dosing, the dose formulation was administered via subcutaneous/intramuscular injection respectively following facility SOPs.
(§5) Sample Collection. Approximately 200 μL blood was collected from saphenous vein at each time point for rats and 0.5 mL for rhesus macaques. All blood samples were transferred into microcentrifuge tubes containing 4 μL of K2EDTA (0.5M) as anti-coagulant and placed on wet ice until processed for plasma.
(§6) Blood/Plasma processing. Blood: Blood samples were processed for plasma by centrifugation at approximately 4° C., 3000 g 15 min within half an hour of collection. Plasma samples was stored in polypropylene tubes, quick frozen over dry ice and kept at −70±10° C. until LC/MS/MS analysis.
(§7) • LC-MS/MS methods for the quantitative determination of test compound in corresponded biological matrix was developed under non-GLP compliance. • A calibration curve with 8 non-zero calibration standards was applied for the method including LLOQ. • A set of QC samples consisting of low, middle, and high concentration was applied for the method. • The study sample analysis will be performed concurrently with a set of calibration standards and two sets of QC samples using the LC-MS/MS method (If sample numbers were more than 48, then two calibration curves with 2 sets of QC samples were applied). • Acceptance criteria: • Linearity: a minimum of 6 calibration standards was back calculated to within ±20% of their nominal values in plasma. • Accuracy: A minimum of 4 out of 6 QC samples was back calculated to within ±20% of their nominal values in plasma. • Specificity: The mean calculated concentration in the single blank matrix should be 0.5 times the LLOQ. • Sensitivity: the LLOQ will be tried to target 1˜3 ng/mL. • Carryover: the mean calculated carry-over concentration in the single blank matrix immediately after the highest standard injection should be LLOQ. If the carryover couldn't meet the criteria, then the percent of carryover should be estimated following in-house bioanalytical SOP.
Data Analysis. Plasma concentration versus time data was analyzed by non-compartmental approaches using the Phoenix WinNonlin 6.3 software program. Cmax, Tmax, T1/2, AUC(0-1), AUC(0-int), MRT(0-1), MRT(0-int), % F and graphs of plasma concentration versus time profile were reported.
Bis-DHA prodrug 9 (31 mg/kg equivalent dose of ETV) and ETV (20 mg/kg) were subjected to single dose rat PK studies via intramuscular route of administration. Non-micronized prodrug and ETV were used. […] Enhanced half-life and mean residence life were also observed for prodrug 9 making it suitable as a long-acting agent.
The data are shown in graphic form in FIG. 18.

[2] = male, beagle, dog, in vivo, 20 mg/kg
Method: as §1, §2, §3, §4, §5, §6, §7
(§8) Data Analysis. Plasma concentration versus time data was analyzed by non-compartmental approaches using the Phoenix WinNonlin 6.3 software program.
The aqueous suspension formulations were derived from 0.5% CMC-Na and 0.5% Tween 80. […] Micronized ETV (D50=2.4 um; D90=5.0 um) and prodrug 29 (D50=1.8 um; D90=4.0 um) and non-micronized prodrug 11 (D50=4.4 um; D90=13.0 um) were used for this study.

[3] = Single dose dog PK, intramuscular and subcutaneous, monitored 56 days (Example 41); assay type: in vivo, Male Beagle dog; details: dose-normalized
Method: as §1, §2, §3, §4, §5, §6, §7, §8
The aqueous suspension formulations were derived from 0.5% CMC-Na and 0.5% Tween 80. […] Micronized ETV-palmitate (D50=3.0 um; D90=10.5 um) and prodrug 36 (D50=7.0 um; D90=16.6 um) and non-micronized prodrug 11 (D50=4.4 um; D90=13.0 um) were used for this study.
The data are shown in graphic form in FIG. 12.

Q: Which results are given for `C=C1[C@H](CO)[C@@H](O)C[C@@H]1n1cnc2c(=O)[nH]c(N)nc21` [ETV, Entecavir]?
A: d.n. Cmax ([1]; in vivo, im): 91.65 ng/mL/mg/kg; Clast ([1]; male, SD, in vivo): 1.4 ng/mL; day of Clast ([1]; male, SD, in vivo): 5 days; Clast [2]: 0.2 ng/mL; day of Clast [2]: 41 days; AUC0-inf ([2]; im): 25294 ± 2044 ng·h/mL; AUC0-last ([2]; im): 25134 ± 1970 ng·h/mL; Cmax ([2]; im): 2390 ± 219 ng/mL; MRT0-inf ([2]; im): 30.8 ± 4.8 h; T1/2 ([2]; im): 438 ± 263 h; Tmax ([2]; im): 2.3 ± 1.2 h

Q: What does the source list for `C=C1[C@H](COC(=O)CC/C=C\C/C=C\C/C=C\C/C=C\C/C=C\C/C=C\CC)[C@@H](OC(=O)CC/C=C\C/C=C\C/C=C\C/C=C\C/C=C\C/C=C\CC)C[C@@H]1n1cnc2c(=O)[nH]c(N)nc21` [Prodrug 9, (4Z,7Z,10Z,13Z,16Z,19Z)-(1S,2R,4S)-4-(2-amino-6-oxo-1H-purin-9(6H)-yl)-2-(((4Z,7Z,10Z,13Z,16Z,19Z)-docosa-4,7,10,13,16,19-hexaenoyloxy)methyl)-3-methylenecyclopentyl docosa-4,7,10,13,16,19-hexaenoate]?
A: half-life and mean residence life ([1]; single IM dose, compared with ETV): Enhanced; d.n. Cmax ([1]; single IM dose, dose-normalized): 0.37 ng/mL/mg/kg

Q: Which “d.n. AUC0-last” value ([3]; single IM dose) does the source give for `C=C1[C@H](COC(=O)Cc2ccccc2)[C@@H](OC(=O)Cc2ccccc2)C[C@@H]1n1cnc2c(=O)[nH]c(N)nc21` [Prodrug 11, ((1R,3S,5S)-3-(2-amino-6-oxo-1H-purin-9(6H)-yl)-2-methylene-5-(2-phenylacetoxy)cyclopentyl)methyl 2-phenylacetate] here?
A: 1286 ng·h/mL/mg/kg

Q: And the “d.n. Cmax” value ([3]; single IM dose)?
A: 2.2 ng/mL/mg/kg

Q: What about the “d.n. AUC0-last” value ([3]; single SC dose) of the same molecule?
A: 874 ng·h/mL/mg/kg

Q: What about the “d.n. Cmax” value ([3]; single SC dose) of the same molecule?
A: 1.8 ng/mL/mg/kg

Q: Which results are given for `C=C1[C@H](CO)[C@@H](OC(=O)Cc2ccccc2)C[C@@H]1n1cnc2c(=O)[nH]c(N)nc21` [Prodrug 36]?
A: d.n. AUC0-last ([3]; single SC dose): 1586 ng·h/mL/mg/kg; d.n. Cmax ([3]; single SC dose): 8.2 ng/mL/mg/kg
